Here are results for three compounds from publication PMC3668096 (FEBS letters, 2012).

The target of one experiment is B. subtilis BshA (Bacillus subtilis, UniProt P42982). The experiment in a line: HPLC detection of UDP release at […] nm. Type of experiment: biochemical.
In another experiment the target is T1, MshA (Mycolicibacterium smegmatis, UniProt A0QQZ8).
T1 sequence (A0QQZ8 1-434): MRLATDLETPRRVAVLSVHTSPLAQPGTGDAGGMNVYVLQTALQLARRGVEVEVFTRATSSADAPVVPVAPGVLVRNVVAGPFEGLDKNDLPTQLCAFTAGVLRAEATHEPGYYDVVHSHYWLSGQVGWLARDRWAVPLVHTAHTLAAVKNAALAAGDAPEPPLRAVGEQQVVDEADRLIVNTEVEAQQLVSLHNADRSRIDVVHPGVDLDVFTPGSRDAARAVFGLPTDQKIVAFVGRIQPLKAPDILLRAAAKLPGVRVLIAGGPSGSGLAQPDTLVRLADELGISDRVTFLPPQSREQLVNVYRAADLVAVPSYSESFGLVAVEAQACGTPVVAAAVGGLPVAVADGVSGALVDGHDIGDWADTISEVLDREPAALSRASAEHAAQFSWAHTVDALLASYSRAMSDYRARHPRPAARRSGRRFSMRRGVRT
The experiment in a line: MshA glycosyltransferase assay. Type of experiment: biochemical. The following applies: 1 mM UDP-GlcNAc, 1 mM 1-L-inositol-1-phosphate.

In general, pIC50 refers to the negative decadic logarithm of the IC50, by convention in mol/L.

pIC50: −log10 of the molar value.

B. subtilis BshA, sequence (P42982 whole entry): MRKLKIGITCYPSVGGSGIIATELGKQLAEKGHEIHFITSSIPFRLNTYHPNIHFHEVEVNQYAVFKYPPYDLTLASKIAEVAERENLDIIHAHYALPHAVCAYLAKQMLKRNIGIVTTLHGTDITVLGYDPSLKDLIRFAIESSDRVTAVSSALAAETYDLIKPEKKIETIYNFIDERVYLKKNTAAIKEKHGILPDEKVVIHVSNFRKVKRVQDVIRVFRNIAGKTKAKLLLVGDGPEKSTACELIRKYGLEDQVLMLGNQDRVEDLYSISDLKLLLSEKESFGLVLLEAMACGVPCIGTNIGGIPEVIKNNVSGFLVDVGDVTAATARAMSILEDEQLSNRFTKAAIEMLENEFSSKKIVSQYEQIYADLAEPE

With `N[C@@H](CS)C(=O)N[C@H]1[C@@H](O[C@@H](CC(=O)O)C(=O)O)O[C@H](CO)[C@@H](O)[C@@H]1O` [BSH, bacillithiol], the pIC50 against B. subtilis BshA is 3.15.

`CC(=O)N[C@@H](CS)C(=O)NC1[C@@H](O[C@@H]2[C@H](O)[C@H](O)[C@@H](O)[C@H](O)[C@H]2O)O[C@H](CO)[C@@H](O)[C@@H]1O` (stereo partly drawn) [MSH, mycothiol]: the pIC50 against MshA (preincubated with MSH, feedback inhibition) is 2.44.

At MshA (preincubated with inhibitor), `CC(=O)N[C@H]1[C@@H](OP(=O)(O)OP(=O)(O)OC[C@H](C=O)OC(C=O)n2ccc(=O)[nH]c2=O)O[C@H](CO)[C@@H](O)[C@@H]1O` (stereo partly drawn) [O-UDP-GlcNAc, 2’,3’-dialdehydo-UDP-N-acetylglucosamine] had a pIC50 of 3.70.
